Source: patent US9145405B2, “Oxadiazole compound and preparation method thereof, pharmaceutical composition and use thereof” (SHANGHAI JIAO TONG UNIVERSITY, priority 2011, dated 2015)
Values after ≈ are worked out from the molar mass of the structure shown. Where two headings read alike, the source gives them in different places.

Legend:
[1] = test system: Vero cells; assay: Toxicity (half toxic concentration) in the anti-Cox_B3 test on Vero cells; type: cell-based
[2] = test system: Cox_B3 virus; assay: Anti-Cox_B3 test: inhibition of cytopathic effect (CPE) in infected Vero cells, Reed-Muench; type: cell-based; details: Cox_B3 virus in Vero cells, CPE, Reed-Muench method; for IC50: read-out: IC50 (half-inhibitory concentration for viruses)
Source text: The present examples verifies experimental results of anti-Cox_B3 of the compounds 1-137of the present invention, Pleconaril, 3-[3,5-dimethyl-4-[5-(3-methy-1,2-oxazolyl)propoxy]phenyl]-5-(trifluonomethyl) -1,2,4-oxadiazole is used as positive control.

Compound	TC50 (half of the toxic concentration) [1] [µg/mL]	IC50 (half-inhibitory concentration for viruses) [2] [µg/mL]	TC50 (half of the toxic concentration) ([1]; Vero cells, Cox_B3) [µg/mL]	IC50 [2] [µg/mL]
6-[2,6-dimethyl-4-[(5-(trifluoromethyl)-1,2,4-oxadiazole-3-yl)phenoxyl]ethoxyl]-5-fluoro-2-hydroxy-3-cyanopyridine [Compound 102]	36.28	0.10	–	–
6-[2,6-dimethyl-4-[(5-(trifluoromethyl)-1,2,4-oxadiazole-3-yl)phenoxyl]ethoxyl]-5-fluoro-2-hydroxyl-3-cyanopyridine [Compound 48]	42.12	0.15	–	–
6-[2,6-dimethyl-4-[(5-(trifluoromethyl)-1,2,4-oxadiazole-3-yl)phenoxyl]ethoxyl]-5-fluoro-3-cyanopyridine [Compound 46]	38.58	0.088	–	–
6-[2,6-dimethyl-4-[(5-(trifluoromethyl)-1,2,4-oxadiazole-3-yl)phenoxyl]ethoxyl]-5-fluoro-3-cyanopyridine [Compound 100]	38.63	0.069	–	–
6-[2,6-dimethyl-4-[(5-(trifluoromethyl)-1,2,4-oxadiazole-3-yl)phenoxyl]ethoxyl]-5-methylpyridine [Compound 51]	40.58	0.078	–	–
6-[2,6-dimethyl-4-[(5-(trifluoromethyl)-1,2,4-oxadiazole-3-yl)phenoxyl]ethoxyl]-5-methylpyridine [Compound 105]	43.18	0.13	–	–
6-[2,6-dimethyl-4-[(5-(trifluoromethyl)-1,2,4-oxadiazole-3-yl)phenoxyl]ethoxyl]-5-trifluoromethylpyridine [Compound 52]	41.28	0.13	–	–
6-[2,6-dimethyl-4-[(5-(trifluoromethyl)-1,2,4-oxadiazole-3-yl)phenoxyl]ethoxyl]-5-trifluoromethylpyridine [Compound 106]	36.36	0.09	–	–
6-[2,6-dimethyl-4-[(5-(trifluoromethyl)-1,2,4-oxadiazole-3-yl)phenoxyl]ethoxyl]pyridine-2-oxy-ethylketoxime [Compound 98]	42.89	0.093	–	–
Cc1cc(OCCOc2c(C)cc(-c3noc(C(F)(F)F)n3)cc2C)no1 [Compound 1, 3-[3,5-dimethyl-4-[2-(5-methylisoxazole-3-oxy)ethoxyl]phenyl]-5-(trifluoromethyl)-1,2,4-oxadiazole]	–	–	50.67	0.022 (≈ 0.0574 µM)
Cc1cc(OCCOc2c(C)cc(-c3noc(C)n3)cc2C)no1 [Compound 2, 3-[3,5-dimethyl-4-[2-(5-methylisoxazole-3-oxy)ethoxyl]phenyl]-5-methyl-1,2,4-oxadiazole]	–	–	58.78	0.091 (≈ 0.276 µM)
Cc1cc(-c2noc(C(F)(F)F)n2)cc(C)c1OCCOc1cc(C(F)(F)F)on1 [Compound 3, 3-[3,5-dimethyl-4-[2-(5-trifluoromethylisoxazole-3-oxy)ethoxyl]phenyl]-5-(trifluoromethyl)-1,2,4-oxadiazole]	–	–	36.68	0.18 (≈ 0.412 µM)
COC(=O)c1cc(OCCOc2c(C)cc(-c3noc(C(F)(F)F)n3)cc2C)no1 [Compound 4, 3-[2-[2,6-dimethyl-4-[5-(trifluoromethyl)-1,2,4-oxadiazole-3-yl]phenoxyl]ethoxyl]-isoxazole-5-carboxylate]	35.58	0.26	–	–
